Values after ≈ are worked out from the molar mass of the structure shown. Like-named read-outs stand apart in the source and are kept apart here.
Experiments:
[1] = Human liver microsomes T1/2; assay type: in vitro ADME; settings: human, liver microsomes; Table 4
BTK = BTK (Homo sapiens, UniProt Q06187); assay: BTK covalent inhibition kinetics (KI, kinact, kinact/KI); assay type: biochemical; settings: Table 4; for Ki / kinact: average of 2 independent determinations (± SD)
Procedure: The development of the structure-activity relationship was conducted by characterizing the non-covalent affinity of each inhibitor for BTK (KI) and the first order rate constant for irreversible covalent bond formation (kinact). The second order rate constant kinact/KI ratio is used to assess the covalent inhibitor potency because it is independent of incubation time and substrate concentrations (Copeland, R. A. Evaluation of Enzyme Inhibitors in Drug Discovery: a Guide for Medicinal Chemists and Pharmacologists; 2nd ed.; Wiley: Hoboken, N.J., 2013).

[2] = Aqueous solubility at pH 2 and pH 7; assay type: physicochemical; settings: Table 4
[3] = aqueous medium, aqueous buffer, pH 7, read-out: Solubility pH 7
[4] = aqueous medium, simulated gastric fluid, pH 2, read-out: Solubility pH 2

Chain of BTK (Q06187 whole entry): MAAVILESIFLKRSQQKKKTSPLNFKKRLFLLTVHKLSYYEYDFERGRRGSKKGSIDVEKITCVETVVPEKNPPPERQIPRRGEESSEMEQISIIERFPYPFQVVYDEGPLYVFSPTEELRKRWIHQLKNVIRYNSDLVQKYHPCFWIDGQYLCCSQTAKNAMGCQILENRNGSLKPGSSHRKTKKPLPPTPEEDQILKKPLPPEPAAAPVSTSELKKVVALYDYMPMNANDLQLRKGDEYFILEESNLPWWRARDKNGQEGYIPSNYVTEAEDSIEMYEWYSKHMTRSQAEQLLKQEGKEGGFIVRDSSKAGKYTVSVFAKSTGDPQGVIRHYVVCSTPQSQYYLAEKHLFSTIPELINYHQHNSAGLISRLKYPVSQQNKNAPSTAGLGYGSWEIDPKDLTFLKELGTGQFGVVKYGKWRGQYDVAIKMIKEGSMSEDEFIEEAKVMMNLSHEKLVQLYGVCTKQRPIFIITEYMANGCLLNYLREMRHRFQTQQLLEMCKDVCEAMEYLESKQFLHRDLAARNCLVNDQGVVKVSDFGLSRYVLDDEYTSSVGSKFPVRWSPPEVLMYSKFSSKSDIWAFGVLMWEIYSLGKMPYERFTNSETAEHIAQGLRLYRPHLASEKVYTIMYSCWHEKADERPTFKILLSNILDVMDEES

C=CC(=O)N1CCCC(NC(=O)c2sc3nccc4c3c2NC(=O)N4c2cnc(OC3CCCC3)cc2C)C1 (stereo not shown) [Compound G]
half-life [1]: < 4 min
Ki (BTK): 22.2 ± 3.3 nM
kinact (BTK): 0.000307 s⁻¹
kinact/KI (BTK; read-out: kinact/KI): 13800 ± 430 M⁻¹ s⁻¹
Solubility [2, 3]: < 4 µM
Solubility [2, 4]: 15 µM (≈ 8.2 µg/mL)

C=CC(=O)N1CCCC(NC(=O)c2sc3nccc4c3c2NC(=O)N4c2cnc(OC(C)C)cc2C)C1 (stereo not shown) [Compound I]
half-life [1]: 19 min
kinact/KI (BTK): 1660 ± 62 M⁻¹ s⁻¹
Ki (BTK): 208 ± 15 nM
kinact (BTK): 0.000345 s⁻¹
kinact/KI (BTK; read-out: kinact/KI): 1660 M⁻¹ s⁻¹
Solubility [2, 3]: 68 µM (≈ 35.4 µg/mL)
Solubility [2, 4]: 119 µM (≈ 62 µg/mL)

C=CC(=O)N1CCCC(NC(=O)c2sc3nccc4c3c2NC(=O)N4c2ccc(Oc3ccccc3)nc2)C1 (stereo not shown) [D]
half-life [1]: 6 min
Ki (BTK): 354 ± 29 nM
kinact (BTK): 0.000278 s⁻¹
kinact/KI (BTK; read-out: kinact/KI): 786 ± 63 M⁻¹ s⁻¹
Solubility [2, 3]: 4 µM (≈ 2.16 µg/mL)
Solubility [2, 4]: 18 µM (≈ 9.73 µg/mL)

C=CC(=O)N1CCCC(NC(=O)c2sc3nccc4c3c2NC(=O)N4c2ncc(Oc3ccccc3)cc2C)C1 (stereo not shown) [E]
half-life [1]: 4 min
Ki (BTK): 69.9 ± 0.2 nM
kinact (BTK): 0.000333 s⁻¹
kinact/KI (BTK; read-out: kinact/KI): 4770 ± 7450 M⁻¹ s⁻¹
Solubility [2, 3]: 9 µM (≈ 4.99 µg/mL)
Solubility [2, 4]: 16 µM (≈ 8.87 µg/mL)

C=CC(=O)N1CCCC(NC(=O)c2sc3nccc4c3c2NC(=O)N4c2cnc(OC3CCC3)cc2C)C1 (stereo not shown) [H]
half-life [1]: < 4 min
Ki (BTK): 64 ± 14 nM
kinact (BTK): 0.000316 s⁻¹
kinact/KI (BTK; read-out: kinact/KI): 5000 ± 560 M⁻¹ s⁻¹
Solubility [2, 3]: 4 µM (≈ 2.13 µg/mL)
Solubility [2, 4]: 10 µM (≈ 5.33 µg/mL)

C=CC(=O)N1CCCC(NC(=O)c2sc3nccc4c3c2NC(=O)N4c2cnc(CC(C)C)cc2C)C1 (stereo not shown) [J]
half-life [1]: 6 min
Ki (BTK): 145 ± 20 nM
kinact (BTK): 0.000319 s⁻¹
kinact/KI (BTK; read-out: kinact/KI): 2220 ± 272 M⁻¹ s⁻¹
Solubility ([2]; aqueous medium at pH 2, simulated gastric fluid, pH 2, read-out: Solubility pH 2): 350 µM (≈ 182 µg/mL)
Solubility ([2]; aqueous medium at pH 7, aqueous buffer, pH 7, read-out: Solubility pH 7): 23 µM (≈ 11.9 µg/mL)

— patent US20250163076A1, “SYNTHESIS OF BRUTON'S TYROSINE KINASE INHIBITORS” (JANSSEN PHARMACEUTICA NV, priority 2022, published 2025)
